Consider 9 compounds from patent US20260133193A1, “COMPOSITIONS AND METHODS FOR TREATING INFLAMMATORY DISEASES” (University of Washington, priority 2018, published 2026).

Type in all cases: cell-based, human
Test [1] has as its system FcgRIIA on neutrophils. The experiment in a line: FcgRIIA shedding, flow cytometry of neutrophil cell surface FcgRs. Conditions: for effect on R848 (TLR7/8)-mediated shedding of FcgRIIA on neutrophils: agent added before R848, flow cytometry IV.3; for neutrophil cell surface expression of FcgRIIA after stimulus: flow cytometry, clone IV.3, vs non-stimulated. An excerpt: To determine the mechanism for the TLR-induced reduction in RNP-IC phagocytosis, we analyzed the neutrophil surface expression of FcgRs after exposure to TLR ligand. Neutrophils were activated with R848 and cell surface expression of FcgRs analyzed by flow cytometry. The results were presented as FcgR levels as compared to no R848 added (% of control). The experiment was repeated five (FcgRI), seven (FcgRIII), and twenty-five (FcgRIIA) times; combined results were compared using paired t test (FcgRIIA, P<0.0001; FcgRI, P=0.027; FcgRIII, P=0.0044). […] In this experiment, neutrophils were activated with the TLR7/8 agonist R848 and analyzed for FcgRIIA at different time-points and concentrations. The experiment was repeated four (concentration) and six (kinetics) times; combined results were compared using paired t test (30 min, P=0.0158; 60 min, P<0.0001; 120 min, P=0.0003; 0.125 μg/mL, P=0.0071; 0.25 μg/mL, P=0.0058; 0.5 μg/mL, P=0.0008; 1 μg/mL, P<0.0001; 2 μg/mL, P<0.0001). […] For these experiments, neutrophils were activated with TLR ligands (LPS, 1 μg/mL, PAM3CSK4 (5 μg/mL), CpG DNA (2 μg/mL), Loxoribine (0.1 mM), CL075 (2.5 μg/mL) or R848 (2 μg/mL)) for 60 minutes or 4 hours and analyzed for FcgRIIA, FcgRII or CD11b and CD66b cell surface expression by flow cytometry. Experiments were repeated six (LPS, P=0.0008), eight (CpG DNA, P=0.035; Loxoribine, P<0.0001, and CL075, P<0.0001), ten (PAM3CSK4, P<0.0001) and forty times (R848, P<0.0001); combined results were compared using paired t test. Additional experiments were repeated four and eight times; combined results were compared using paired t test (CD11b: R848, P<0.0001; LPS, P=0.0002; PAM, P<0.0001; CpG DNA, P<0.0001; CD66b: R848, P<0.0001; LPS, P<0.0001; PAM, P<0.0001; CpG DNA, P=0.014).
Neutrophils were activated by LPS (1 μg/mL), R848 (2 μg/mL), PAM3CSK4 (5 μg/mL), Loxoribine (0.1 mM), CL075 (2.5 μg/mL) or CpG DNA (2 μg/mL) for 30 minutes, followed by analysis of cell surface expression of CD32A (IV.3; Stemcell Technologies, FUN-2, BioLegend), CD16 (clone 3G8), CD64 (clone 10.1), and CD66b (all from BioLegend) by flow cytometry. For intracellular staining, neutrophils were fixed in 2% paraformaldehyde for 10 minutes, permeabilized with saponin (diluted 1:1000 in PBS) for 15 minutes and stained with anti-CD32A antibodies diluted 1:100. In some experiments, neutrophils were incubated with inhibitors (DPI (25 μM, Sigma), apocynin (100 μM, Sigma), GM-6001 (10 μM, Enzo Life Sciences), LY294002 (10 μM), cOmplete Protease Inhibitor Cocktail Tablets (1× dissolved in H2O, Roche), neutrophil elastase IV inhibitor (25 μM, Calbiochem), E-64 (1 μM, Sigma), 4-(2-Aminoethyl)benzenesulfonyl fluoride hydrochloride (AEBSF, 0.1 mM, Sigma), CMK (25 μM, Enzo Life Sciences), cytochalasin B (5 μM, Sigma) or chymostatin (10 μg/mL, Sigma)) or recombinant furin (100 ng/mL, maximal dose tolerated by the neutrophils, Peprotech) 30 minutes prior to addition of stimuli. In some experiments cell surface levels of B cell activating factor (BAFF, Biolegend) was analyzed according to the same protocol as described above. Monocytes and pDCs were detected using antibodies to CD14 (BioLegend) and CD304 (Miltenyi Biotech), respectively.
A general note: Flow cytometry measures light scatter and fluorescence of single cells or particles in a stream.

In the next test the test system is neutrophils. The experiment in a line: ROS analysis in neutrophils (DHR123, OxyBURST). Conditions: flow cytometry and fluorimetry, cell impermeable ROS dye.
The subject of test [2] is FcgRIIA on neutrophils. Nature of the test: SLE serum-mediated FcgRIIA shedding on healthy control neutrophils. Conditions: sera from 6 SLE patients, IV.3/FUN2. On the procedure: As neutrophil and monocyte FcgRIIA shedding was highly correlated in SLE patients upon ex vivo analysis (correlation analysis for ex vivo monocyte and neutrophil (PMN) FcgRIIA shedding in SLE patients was performed; combined results were analyzed using Spearman's correlation (r=0.84, P<0.0001)), we asked whether this could be attributed to circulating proteases, likely neutrophil-derived. […] Consistent with a role of RNA ICs, serum-mediated FcgRIIA shedding was higher in patients with anti-Sm/RNP antibodies (sera from 6 SLE patients, pre-incubated with either RNase, a pan-protease inhibitor (prot.inh.), or cytochalasin B (Cyto B, 5 μM) were added to neutrophils from a healthy individual and FcgRIIA shedding analyzed by flow cytometry; combined results were compared using paired t test (RNase: P=0.012; prot.inh.: P=0.0002; Cyto B: P<0.0001)). […] Finally, SLE serum-mediated shedding of FcgRIIA from healthy control neutrophils strongly correlated with the FcgRIIA shedding observed upon ex vivo isolation of the SLE patient's neutrophils (correlation between ex vivo FcgRIIA shedding observed on SLE neutrophils with the shedding ability by the serum obtained from the same SLE patients (n=12); combined results were analyzed by Spearman's correlation (r=0.73, P=0.0096)). […]

The next test concerns BAFF. The experiment in a line: BAFF cell surface expression on neutrophils. The conditions noted are these: furin 100 ng/mL, 30 minutes before R848. On the procedure: To determine which protease(s) were involved in the shedding of FcgRIIA, neutrophils were incubated with selective protease inhibitors prior to the addition of the TLR agonist. Cell surface levels of FcgRIIA (IV.3) was analyzed by flow cytometry upon R848 activation in the presence of a pan protease inhibitor or inhibitors of matrix metalloproteases (GM6001, 10 μM), cysteine proteases (E-64, 1 μM), serine proteases (AEBSF, 100 μM), neutrophil elastase (Elastase inhibitor IV, 25 μM), cathepsin G (chymostatin, 10 μg/mL) or furin (chloromethylketone (CMK, 25 μM). The experiment was repeated three (E-64), four (Pan Prot.inh., P<0.0001; AEBSF, P=0.0004; chymostatin; and CMK, P=0.0038), five (GM6001), and seven (NEi) times; combined results were compared using paired t test. […] Additionally, neutrophils were incubated with furin (100 ng/mL) or CMK 30 minutes prior to addition of R848. BAFF cell surface expression was analyzed by flow cytometry. […] Briefly, neutrophils were incubated with furin (100 ng/mL) in presence or absence of R848 and analyzed for FcgRIIA levels by flow cytometry. […] Finally, supernatant from activated neutrophils was fractionated and analyzed for capacity to induce shedding of monocyte FcgRIIA without, or with prior boiling of the fractions. […]

Take `Cl.NCCc1ccc(S(=O)(=O)F)cc1` [AEBSF, 4-(2-Aminoethyl)benzenesulfonyl fluoride hydrochloride]: the “effect on R848 (TLR7/8)-mediated shedding of FcgRIIA on neutrophils” value (from here on “effect on R848”) in the test on FcgRIIA on neutrophils [1] was “dependent on serine proteases”.
With `CCCc1nc2c(N)nc3ccccc3c2s1` [CL075], the “neutrophil cell surface expression of FcgRIIA after stimulus” value (shortened to “neutrophil cell surface expression”) with FcgRIIA on neutrophils [1] is “reduced neutrophil cell surface levels of FcgRIIA, but not of FcgRIIIB”.
For the compound `[Cl-].c1ccc2c(c1)[I+]c1ccccc1-2` [DPI], the “effect on R848” value with FcgRIIA on neutrophils [1] is “completely restored cell surface levels of FcgRIIA”. The “effect on LPS- or PAM3CSK4-mediated shedding of FcgRIIA” value in the test with FcgRIIA on neutrophils [1] (neutrophils activated with LPS or PAM3CSK4 in presence of DPI) is “dependent on NADPH oxidase”.
Regarding `C=CCn1c(=O)n([C@@H]2O[C@H](CO)[C@@H](O)[C@H]2O)c2nc(N)[nH]c(=O)c21` [Loxoribine], in the test with FcgRIIA on neutrophils [1], the “neutrophil cell surface expression” value is recorded as “reduced neutrophil cell surface levels of FcgRIIA, but not of FcgRIIIB”.
Consider `CCCCCCCCCCCCCC(=O)O[C@@H]1[C@@H](C)[C@@]2(O)[C@@H](C=C(CO)C[C@]3(O)C(=O)C(C)=C[C@@H]23)[C@@H]2C(C)(C)[C@]12OC(C)=O` [PMA], for which the “cellular localization of ROS generation” value in the test with neutrophils was “induced both intracellular and extracellular ROS generation”.
In the case of `COc1cc(C(C)=O)ccc1O` [apocynin], the “effect on R848” value in the test with FcgRIIA on neutrophils [1] was “completely restored cell surface levels of FcgRIIA”.
For the compound `C=C1[C@@H](C)[C@H]2[C@H](Cc3ccccc3)NC(=O)[C@]23OC(=O)/C=C/[C@H](O)CCC[C@@H](C)C/C=C/[C@H]3[C@@H]1O` [cytochalasin B], the “effect on SLE serum-mediated FcgRIIA shedding” value with FcgRIIA on neutrophils [2] is “almost completely abrogated serum-mediated FcgRIIA shedding”.
Regarding PAM3CSK4, the “neutrophil cell surface expression” value in the test on FcgRIIA on neutrophils [1] is reported as “reduced neutrophil cell surface levels of FcgRIIA, but not of FcgRIIIB”.
In the case of “furin: recombinant furin, pro-protein convertase (Peprotech)”, in the test with BAFF, the “BAFF cell surface expression” value is recorded as “increased cell surface BAFF levels”. The “effect on R848” value with FcgRIIA on neutrophils [1] is “did not affect FcgRIIA shedding on neutrophils”.
